Reference: PubChem BioAssay AID179 (DTP/NCI, 2004)
Calls of active or inactive are those of the source.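 How the source made its calls: active means compounds giving half or more protection of infected cells from virus-caused growth loss, again on retest; inactive means the rest.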

Test system: CEM cells HIV-1 protection, formazan growth assay
Test: NCI AIDS Antiviral Assay
Conditions: for IC50: measured here: growth of uninfected CEM cells
Method in brief: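 Screen of anti-HIV-1 activity in human CEM cells using a formazan-based growth measurement at five drug concentrations. Hits with 50% or greater protection were repeated, and confirmation required reproducible complete protection.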

Structure (SMILES) | EC50 | IC50 | outcome
Cc1cc(N=C2C=C(Nc3cc(C)on3)C(=O)c3ccccc32)no1 | > 11.2 µM | > 11.2 µM | –
COc1cccc(C2C(C(=O)O)=C(CO)Oc3cc4c(cc32)OCO4)c1 (stereo not given) | – | – | inactive
N#CC(C#N)=C1SCC(=O)CS1 | – | – | inactive
O=C1CSC2=NCCN12 | > 200 µM | > 200 µM | inactive
CCCCN(CCCC)CC(C(=O)Nc1ccccc1)/C(C)=N\NC(=O)c1ccncc1 (stereo not given) | > 51.3 µM | 30.2 µM | –
COc1cc(OC)c2nccc(NCCCN(C)C)c2c1[N+](=O)[O-] | > 200 µM | 93.3 µM | –
O=[As](O)(O)c1ccccc1F | > 200 µM | 141 µM | –
O=C1c2c(ccc3c2CCC3)CC1Cc1ccc2c(c1)CCC2 (stereo not given) | > 200 µM | 35.5 µM | –
O=C(Nc1ccccc1)c1cc2c(cc1Cl)Sc1nccn1S2(=O)=O | > 200 µM | > 100 µM | –
Cc1nn(C(=O)Cc2ccccc2)c2c1C(c1ccccc1O)SC(N)=N2 (stereo not given) | 57.5 µM | 398 µM | –
NC(=O)c1ccccc1NC(=O)C(=O)C(c1cnc2ccc([N+](=O)[O-])cc2n1)[N+](=O)[O-] (stereo not given) | > 61.7 µM | > 61.7 µM | –
O=C(O)CCSC(=S)NCCNC(=S)SCCC(=O)O | > 708 µM | 437 µM | –
CN1c2ccccc2C(=O)Nc2cnc(Cl)nc21 | > 200 µM | > 200 µM | –
COc1c(OC)c(C=O)c2c(OC)c(-c3c(C)cc4c(C(C)C)c(OC)c(OC)c(C=O)c4c3OC)c(C)cc2c1C(C)C | – | – | inactive
NC(=O)N=Nc1c2ccccc2n2[nH]ccc12 | > 200 µM | 81.3 µM | –
COc1ccccc1/C=C(\NC(=O)c1ccccc1)c1nc2ccc(Cl)cc2[nH]1 | > 46.8 µM | > 46.8 µM | –
O=[N+]([O-])c1ccc(-c2nc3c(o2)CCC3)cc1 | > 200 µM | 195 µM | –
Cc1cccc(Nc2c3c(nc4ccccc24)CCCCC3)c1 | – | – | inactive
CCOP(=O)(Nc1ccc(-c2ccc(N)cc2)cc1)OCC | > 200 µM | 170 µM | –
C(=N\NC1=NCCCCN1)/c1ccc2ccccc2c1 | > 200 µM | 33.1 µM | –
O=c1cc(-c2ccccc2)oc2c1ccc1[nH]c3ccccc3c(=O)c12 | > 200 µM | > 200 µM | –
CCOC(=O)NC(=O)c1cn(C(CC)COC(=O)NCCCCCCNC(=O)OCC(CC)n2cc(C(=O)NC(=O)OCC)c(=O)[nH]c2=O)c(=O)[nH]c1=O (stereo not given) | – | – | inactive

Structure (SMILES) | EC50 | IC50 | outcome
CCCC(C)N(CC(=O)Nc1ccc(S(N)(=O)=O)cc1)C(C)=O (stereo not given) | > 200 µM | > 200 µM | –
O=C(NO)c1ccc(C(=O)NO)c(Br)c1 | – | – | inactive
C=CCCCCOC1C=CC(O)C(CO)O1 (stereo not given) | > 200 µM | > 200 µM | –
CN(C)c1ccc(/C=c2\sc3nnc(Cc4ccccc4)n3c2=O)cc1 | > 3.98 µM | > 3.98 µM | –
Cc1cc(C)c(SSc2nnnn2C)c(C)c1 | > 200 µM | 19.5 µM | –
NNC(=S)N/N=C(\CCCC(=O)NCCc1ccccc1)CC(=O)c1ccccc1 | > 219 µM | > 219 µM | –
COc1cccc(OC)c1/C=C1\OC(=O)c2cccc(OC)c21 | > 20 µM | 1.17 µM | –
CCCCCCCCCCCCCCCCCC(=O)NCC(COP(=O)([O-])OCC[N+](C)(C)C)OC (stereo not given) | – | – | inactive
CC(NC1=NCCO1)c1ccco1 (stereo not given) | > 200 µM | > 200 µM | –
COc1ccc(C[C@H](N)C(=O)N2C[C@H](CO)C[C@H](n3ccc(=O)[nH]c3=O)C2)cc1 | > 617 µM | > 617 µM | –
O=C(c1nc2ccccc2[nH]c1=O)C(O)c1ccccc1 (stereo not given) | > 468 µM | 151 µM | –
CN(CCO)CC(O)Cn1cnc2c1c(=O)n(C)c(=O)n2C (stereo not given) (tested in a mixture with another compound) | > 200 µM | > 200 µM | –
CC(C)(Cc1ccccc1)NC1=NCCO1 | > 200 µM | > 200 µM | –
CC1OC2=N[C@@H]1C(=O)N[C@@H](C(C)C)C1=N[C@H](C(=O)N[C@@H](C(C)C)C3=N[C@H](C(=O)N[C@@H](C(C)C)C4=N[C@H](C(=O)N[C@H]2C(C)C)C(C)O4)C(C)O3)C(C)O1 (stereo not given in full) | > 200 µM | > 200 µM | –
c1ccc(-c2ccccn2)nc1 | > 1580 µM | 27.5 µM | –
O=C1c2ccccc2C(=O)c2cc(N=Nc3c(O)ccc4ccccc34)ccc21 | > 100 µM | > 100 µM | –
COC(=O)C1C2C=CC(C2)C1(C(=O)OC)S(=O)CC12CCC(CC1O)C2(C)C (stereo not given) | > 229 µM | > 229 µM | –
NC(CSP(=O)(O)O)=NCC12CC3CC(CC(C3)C1)C2 | – | – | inactive
CC(C)C[P+](c1ccccc1)(c1ccccc1)c1ccccc1 | > 20 µM | 2.19 µM | –
CC(=O)/C(=C/n1c(=S)[nH]c2ccccc21)C(=O)Nc1ccc([N+](=O)[O-])cc1 | > 200 µM | 105 µM | –
CNC(=O)CCCN(C)C(=O)CCCCC(=O)N(C)C | > 200 µM | > 200 µM | –
CN1C(=O)CCSC1=S | – | – | inactive
